We go through 11 molecules from patent publication US20110044938A1 (NYCOMED GMBH, priority 2006, published 2011).

Test [1] relates to RKO (RKOp27) human colon adenocarcinoma cells. Kind of test: Alamar Blue cell viability assay, anti-proliferative/cytotoxic activity on proliferating RKO subclones. Type of test: cell-based. Conditions: RKOp27, 72 h, RKO p27 uninduced (proliferating) cells, value = class bound given in Table A, read-out: −logIC50 RKO p27 uninduced (proliferating) (converted). Put shortly:
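RKOp27 subclones (5000 cells/well) were exposed 24 h after seeding to semi-log compound dilutions in DMEM with 10% FCS, in quadruplicate, for 72 h at 37 °C. Viability was read by Alamar Blue fluorescence (544/590 nm) relative to untreated cells (1% DMSO medium). IC50 came from concentration-effect curves and is reported as −log IC50 [mol/l].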
For orientation: The colour change of resazurin is a common sign of viable cells or microbes.

The test system of test [2] is subclones of RKO colon adenocarcinoma cells (RKOp27 or RKOp21) arrested by Ponasterone A. Kind of test: Alamar Blue cell viability assay, cell cycle specific mode of action: cells arrested by ectopic p27Kip1 induced by Ponasterone A versus proliferating cells. Type of test: cell-based. The following applies: Homo sapiens, RKO p27 induced (arrested) cells, 10 μM Ponasterone A, 72 hours, value = class bound given in Table A, read-out: −logIC50 RKO p27 induced (arrested) (converted). Put shortly: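 RKOp27 or RKOp21 cells, 15000/well in DMEM/10% FCS, either arrested by p27Kip1 induced with 10 μM Ponasterone A or proliferating without inducer; compound added after 24 h, 72 h at 37° C. Alamar Blue fluorescence (544/590 nm), viability as % of untreated cells; −log IC50 reported.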

As to `CCOc1ccccc1CCC(=O)Nc1sc2c(c1C#N)CCC(OC(=O)OCc1ccccc1)C2` (stereo not shown) [Example 154, Carbonic acid benzyl ester 3-cyano-2-[3-(2-ethoxy-phenyl)-propanoylamino]-4,5,6,7-tetrahydro-benzo[b]thiophen-6-yl ester], the IC50 in test [1] is 0.501 to 2 µM; in test [2], ≥ 100 µM.

Regarding `CCOc1ccccc1CCC(=O)Nc1sc2c(c1C#N)CCC(OC(=O)NCc1ccccc1)C2` (stereo not shown) [Example 155, Benzyl-carbamic acid 3-cyano-2-[3-(2-ethoxy-phenyl)-propanoylamino]-4,5,6,7-tetrahydro-benzo[b]thiophen-6-yl ester], the IC50 in test [1] is ≤ 0.501 µM; in test [2], ≥ 100 µM.

In the case of `CCNC(=O)OCC1CCc2c(sc(NC(=O)CCc3cccnc3)c2C#N)C1` (stereo not shown) [Example 156, Ethyl-carbamic acid 3-cyano-2-(3-pyridin-3-yl-propanoylamino)-4,5,6,7-tetrahydro-benzo[b]thiophen-6-ylmethyl ester], the IC50 in test [1] is 0.501 to 2 µM; in test [2], ≥ 100 µM.

Consider `CCNC(=O)OC[C@H]1CCc2c(sc(NC(=O)CCc3cccnc3)c2C#N)C1` [Example 156a, (S)-Ethyl-carbamic acid 3-cyano-2-(3-pyridin-3-yl-propanoylamino)-4,5,6,7-tetrahydro-benzo[b]thiophen-6-ylmethyl ester], for which the IC50 in test [1] is 0.501 to 2 µM; in test [2], ≥ 100 µM.

Regarding `N#Cc1c(NC(=O)CCc2cccnc2)sc2c1CCC(COC(=O)NCc1ccccc1)C2` (stereo not shown) [Example 157, Benzyl-carbamic acid 3-cyano-2-(3-pyridin-3-yl-propanoylamino)-4,5,6,7-tetrahydro-benzo[b]thiophen-6-ylmethyl ester], the IC50 in test [1] was ≤ 0.501 µM; in test [2] it was ≥ 100 µM.

In the case of `CCOC(=O)OC1CCc2c(sc(NC(=O)CCc3cccnc3)c2C#N)C1` (stereo not shown) [Example 158, Carbonic acid 3-cyano-2-(3-pyridin-3-yl-propanoylamino)-4,5,6,7-tetrahydro-benzo[b]thiophen-6-yl ester ethyl ester], the IC50 was 0.501 to 2 µM in test [1] and ≥ 100 µM in test [2].

With `CCNC(=O)OCC1CCc2c(sc(NC(=O)CCc3ccccc3OCC)c2C#N)C1` (stereo not shown) [Example 159, Ethyl-carbamic acid 3-cyano-2-[3-(2-ethoxy-phenyl)-propanoylamino]-4,5,6,7-tetrahydro-benzo[b]thiophen-6-ylmethyl ester], the IC50 in test [1] is ≤ 0.501 µM; in test [2] it was ≥ 100 µM.

Turning to `CCOc1ccccc1CCC(=O)Nc1sc2c(c1C#N)CCC(COC(=O)NCc1ccccc1)C2` (stereo not shown) [Example 160, Benzyl-carbamic acid 3-cyano-2-[3-(2-ethoxy-phenyl)-propanoylamino]-4,5,6,7-tetrahydro-benzo[b]thiophen-6-ylmethyl ester], the IC50 in test [1] was ≤ 0.501 µM; in test [2], ≥ 100 µM.

Consider `N#Cc1c(NC(=O)CCc2cccnc2)sc2c1CCC(OC(=O)NC1CC1)C2` (stereo not shown) [Example 161, Cyclopropyl-carbamic acid 3-cyano-2-(3-pyridin-3-yl-propanoylamino)-4,5,6,7-tetrahydro-benzo[b]thiophen-6-yl ester], for which the IC50 in test [1] was 0.501 to 2 µM; in test [2], ≥ 50.1 µM.

With `CNC(=O)OCC1CCc2c(sc(NC(=O)CCc3cccnc3)c2C#N)C1` (stereo not shown) [Example 162, Methyl-carbamic acid 3-cyano-2-(3-pyridin-3-yl-propanoylamino)-4,5,6,7-tetrahydro-benzo[b]thiophen-6-ylmethyl ester], the IC50 in test [1] is 0.501 to 2 µM; in test [2], ≥ 100 µM.

Take `CCOc1ccccc1CCC(=O)Nc1sc2c(c1C#N)CCC(OC(=O)NCCn1ccnc1)C2` (stereo not shown) [Example 163, (2-Imidazol-1-yl-ethyl)-carbamic acid 3-cyano-2-[3-(2-ethoxy-phenyl)-propanoylamino]-4,5,6,7-tetrahydro-benzo[b]thiophen-6-yl ester]: the values for the IC50 in test [1] and in test [2] were ≤ 0.501 µM and ≥ 10 µM, respectively.
